Source: US20050271588A1, “Liposome targeting of matrix metalloproteinase inhibitors” (priority 2001, published 2005)
Positions of bridges follow the written chain, without caps; N, C: chain ends. No end group written: not given here.

Tests used:
MMP-9 = target: T1, MMP-9 (Homo sapiens, UniProt P14780); test: Gelatinase assay with fluorogenic peptide substrate; type: biochemical; settings: 100 μM EDTA, MMP-9 5 nM
T1 construct: made in house
Experimental: The activity of MMP-9 was measured also using the fluorogenic peptide substrate MCA-Pro-Leu-Ala-Nva-Dpa-Ala-Arg (Calbiochem, San Diego, Calif., USA). More specifically, 50 ng of MMP-9 was preincubated in PBS for 30 min at RT in the absence or presence of CTT or its liposome complex. Subsequently, the fluorogenic substrate was added to a final concentration of 0.1 mM and the incubation was continued at 37° C. for 15 min, whereafter fluorescence intensities were measured with exitation at 340 nm and emission at 390 nm in a microtiter plate reader.

HT1080 cells = test: Blocking of CTT-liposome uptake by antibodies and proteinase inhibitors; type: cell-based, human; settings: TIMP-2 10 μg/ml, Marimastat 50 μM, EDTA 500 μM, aprotinin 1 μg/ml
Experimental: We further investigated if cell surface-bound gelatinases were the receptors for the CTT-containing liposomes. Cells were washed to remove soluble forms of gelatinases, and then preincubated for 30 min with MMP inhibitors or specific antibodies before the addition of liposomes.
(§1) We also preincubated cells with phorbol ester (TPA) (50 nM). Preincubation times varied from 15 to 75 min. Treatment of cells by phorbol ester (TPA) increases both expression and secretion of MMP-9 (Toth et al., 1997). […] M-17 inhibits the binding of MMP-9 to the substrate and this inhibition is expected to be concentration dependent. It is not known if rabbit polyclonal antibody blocks human MMP-2 (Murphy et al., 1994). Final concentrations of the indicated peptide, Adriamycin, antibodies and liposomes were 85 μM, 0.2 mM, 20 μg/ml, and 0.4 μM, respectively.

cells = test: Effect of phorbol ester (TPA) preincubation on CTT-liposome uptake; type: cell-based; settings: TPA 50 nM
Experimental: as §1, with “1997). Results are presented as RFI=I/I0, where RFI is relative fluorescence intensity, I0 is the emission intensity for the control, 2 μM rhodamine B in LUVs without the peptides, and I is the rhodamine emission for the peptide-liposome complexes taken up by the cells.” for “1997).”

U937 cells [1] = test: Cell killing by Adriamycin-containing liposomes, EthD-1 viability assay; type: cell-based; settings: U937, 24 h, peptide 85 μM, Adriamycin 0.4 μM
Experimental: Viability assays. Peptide-liposome complexes with the encapsulated adriamycin were made as described above, yielding final concentrations of peptide, lipid, and adriamycin of 85 μM, 0.2 mM, and 0.4 μM, respectively, and were subsequently added to a ten μl (10^5 cells) sample of U937 cells. For the detection of dead cells EthD-1 was used. This fluorophore is membrane-impermeable and emits fluorescence only when bound to DNA (Papadopoulos et al., 1994). Accordingly, EthD-1 readily enters dead cells and binds to their DNA, its fluorescence intensity correlating to the amount of dead cells. EthD-1 emission was measured using microplate reader with excitation at 495 nm and emission at 635 nm. Student's t-test was used to assess statistical significance.

U937 cells [2] = test: Uptake of liposome-encapsulated rhodamine B by U937 cells; type: cell-based; settings: U937, fluorescence plate-reader
Experimental: In another series of experiments the water-soluble fluorescent marker rhodamine B was encapsulated into liposomes and its uptake by cells was measured. Samples for rhodamine B uptake were prepared by mixing 60 μl of POPC/POPE (80/20, mol/mol, one mM) liposomes containing 10 μM rhodamine B to 300 μl of DMEM medium supplemented with 10% fetal bovine serum, Glutamax I, penicillin 100 U/ml and streptomycin 0.1 mg/ml. Peptides were then added to obtain a final concentration of […]. Ten μl (10^5 cells) of medium containing the indicated cells were combined with the LUVs. After an incubation for 15 min at 37° C. or +4° C. liposomes not bound to the cells were removed from 96-well plates by rinsing three times with cold PBS. The +4° C. temperature served as a control for non-endocytotic liposome uptake by cells (Oess and Hildt, 2000). The relative amount of rhodamine B associated with the cells was determined using microplate reader with excitation at 535 nm and emission at 595 nm.
as §1, with “1997). Results are presented as RFI=I/I0, where RFI is relative fluorescence intensity, I0 is the emission intensity for the control, 2 μM rhodamine B in LUVs without the peptides, and I is the rhodamine emission for the peptide-liposome complexes taken up by the cells.” for “1997).”
Cell cultures and fluorescence microscopy. U937 (ECACC 85011440), HT 1080 (ECACC 85111505), and CHO (ECACC 85050302) cells were cultured in RPMI or DMEM medium supplemented with 10% fetal bovine serum, Glutamax I, penicillin (100 U/ml), and streptomycin (0.1 mg/ml). Uptake of rhodamine B containing liposomes by the cultured cells was verified by fluorescence microscopy. An inverted fluorescence microscope (Zeiss IM 35) equipped with Nikon extra long working distance objectives (20×) and (40×) were used. Samples were prepared as described for the rhodamine uptake assay, with slight modifications. Accordingly, instead of washing, U937, HT 1080, and CHO cells with the rhodamine-containing liposomes and in cell culture medium were transferred into Nunclon 48 plate wells. Excitation and emission wavelengths were selected by suitable bandpass filters (Melles-Griot) transmitting in the range 535 nm and >600 nm, respectively. Fluorescence images were viewed with a Peltier-cooled digital camera (C4742-95, Hamamatsu, Japan) connected to a computer and operated by software (Hipic 5.0) provided by the instrument manufacturer.

[3] = Penetration of peptides into lipid monolayers (surface pressure); type: physicochemical; settings: eggPC monolayer, peptide 200 μM
Experimental: Interaction of peptides with lipid monolayers. Penetration of peptides into mono-molecular lipid films was measured using magnetically stirred circular wells (subphase volume 400 μl). Surface pressure (π) was monitored with a Wilhelmy wire attached to a microbalance (μ TroughS, Kibron Inc., Helsinki, Finland) connected to a Pentium PC. Lipids were spread on the air-buffer (PBS, pH 7) interface in chloroform (approx. one mg/ml) to different initial surface pressures (π0) and were allowed to equilibrate for 15 min before the addition of the indicated peptides (4 μ1,10 mg/ml in H2O and CWL in DMSO) into the subphase. The increment in π from the initial surface pressures (π0) after the addition of peptide was complete in approximately 20 min and the difference between π0 and the value observed after binding of the peptide into the film was taken as Δπ. All measurements were performed at ambient temperature (˜+24° C.). The data are represented as Δπ vs. […] (Brockman, 1999).

[4] = Assay for lipid mixing (liposome fusion, NBD-PE/DPPRho); type: physicochemical; settings: within 15 min
Experimental: The extent of exposure of Trp to the aqueous phase was studied using I— as a collisional quencher (Lakowicz, 1999). The extent of quenching was calculated by using the equation: F0/F=1+k[Q]=1+kqτ0[Q] where F0 and F are Trp fluorescence intensities at 345 nm in the absence and presence of the quencher, Q, τ0 is Trp fluorescence lifetime in the absence of the quencher, k is the Stern-Volmer constant (obtained from the slope of the linear fit of the data). Fluorescence of Trp in CTT (5 μM) and its quenching were measured in the absence and presence of POPC/POPE (80:20, mol/mol) LUVs (final lipid concentration of 0.5 mM). The results were corrected for background caused by PBS and liposomes. Assay for lipid mixing. The ability of the CTT, CLP, STT, and CWL peptides to induce liposome fusion was assessed by measuring lipid mixing, as described earlier (Struck et al., 1981). In brief, NBD-PE (X=0.01) and DPPRho (X=0.01) were incorporated into liposomes (POPC/POPE, 78/20, mol/mol). Due to the spectral overlap of NBD-PE (donor) emission and DPPRho (acceptor) absorption resonance energy transfer between these dyes is highly efficient. As liposomes containing NBD-PE and DPPRho are mixed with non-labeled liposomes, fusion is observed as an increase in the emission intensity of NBD-PE due to the dilution of probes. Excitation and emission wavelengths for NBD-PE at 430 nm and 530 nm were used. All fluorescence measurements were done at 37° C.

MMP-2 = target: T2, MMP-2 (Homo sapiens, UniProt P08253); test: Casein zymography, inhibition of MMP-2; type: biochemical; settings: 85 μM peptide
T2 construct: purchased Boehringer Mannheim GmbH (Germany)
T2 sequence (P08253 110-660): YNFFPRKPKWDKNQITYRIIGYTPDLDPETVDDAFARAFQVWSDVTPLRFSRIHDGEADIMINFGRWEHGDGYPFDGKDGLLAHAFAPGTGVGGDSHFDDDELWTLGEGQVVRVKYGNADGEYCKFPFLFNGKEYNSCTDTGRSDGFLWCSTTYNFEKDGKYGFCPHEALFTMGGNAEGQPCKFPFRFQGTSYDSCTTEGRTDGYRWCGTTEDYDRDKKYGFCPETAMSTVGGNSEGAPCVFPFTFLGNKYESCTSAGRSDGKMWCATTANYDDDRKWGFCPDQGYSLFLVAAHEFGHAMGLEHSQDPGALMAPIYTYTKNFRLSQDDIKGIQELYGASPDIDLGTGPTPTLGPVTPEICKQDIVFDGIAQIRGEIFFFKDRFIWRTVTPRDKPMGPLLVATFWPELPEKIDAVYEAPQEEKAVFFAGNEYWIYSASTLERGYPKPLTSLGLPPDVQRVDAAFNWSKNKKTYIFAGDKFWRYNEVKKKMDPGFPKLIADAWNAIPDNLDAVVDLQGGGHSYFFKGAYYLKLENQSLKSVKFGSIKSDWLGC
Experimental: Assay for gelatinases. Inhibition of MMP-9 and MMP-2 by the different synthetic peptides was measured using casein zymography (Halinen et al., 1996). MMP-9 was purified as described (Sorsa et al., 1997). Subsequently, MMP-2 (2.5 μg) or MMP-9 (2.5 μg) was run on a 10% SDS-PAGE containing two mg/ml casein. The gel was first washed in Triton X-100 containing buffer to remove SDS, and it was cut into five slices which were immersed into peptide (CTT, CLP, CWL or STT) containing solutions (85 μM). After incubation for 48 hrs at 37° C., the gels were stained with Coomassie blue, scanned, and the digested areas quantitated using image analysis (Global Lab Image 3.2, Data Translation Inc. and Acuity Imaging Inc., Marlboro, Mass., USA).

T1 sequence (P14780 94-707): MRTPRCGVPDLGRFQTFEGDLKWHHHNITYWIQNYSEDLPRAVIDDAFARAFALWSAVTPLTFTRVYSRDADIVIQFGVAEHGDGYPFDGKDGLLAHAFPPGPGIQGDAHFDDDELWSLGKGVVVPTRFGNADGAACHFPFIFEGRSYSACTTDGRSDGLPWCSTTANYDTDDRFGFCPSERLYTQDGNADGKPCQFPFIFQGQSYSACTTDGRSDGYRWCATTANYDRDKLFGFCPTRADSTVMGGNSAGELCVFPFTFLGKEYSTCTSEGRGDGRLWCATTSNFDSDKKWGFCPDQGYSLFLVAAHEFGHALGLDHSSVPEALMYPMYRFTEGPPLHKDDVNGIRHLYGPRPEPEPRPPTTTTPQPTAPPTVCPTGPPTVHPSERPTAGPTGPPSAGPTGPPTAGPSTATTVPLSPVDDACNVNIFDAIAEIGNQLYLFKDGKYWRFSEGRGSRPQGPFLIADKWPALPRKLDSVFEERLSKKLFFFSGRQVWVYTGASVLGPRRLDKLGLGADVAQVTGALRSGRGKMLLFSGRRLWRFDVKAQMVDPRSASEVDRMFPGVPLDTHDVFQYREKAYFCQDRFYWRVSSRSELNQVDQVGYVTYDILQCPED

## O=C(O)CN(CCN(CC(=O)O)CC(=O)O)CC(=O)O [EDTA, reference compound]
MMP-9
  Inhibition of MMP-9: Complete inhibition

## CNC(=O)[C@@H](NC(=O)[C@H](CC(C)C)[C@H](O)C(=O)NO)C(C)(C)C [Marimastat]
HT1080 cells
  Inhibition of liposome transfer into cells: approx. 50%

## CCCCCCCCCCCCCC(=O)O[C@@H]1[C@@H](C)[C@@]2(O)[C@@H](C=C(CO)C[C@]3(O)C(=O)C(C)=C[C@@H]23)[C@H]2C(C)(C)[C@]12OC(C)=O [TPA]
cells; prolonged incubation (75 min)
  Effect on uptake of CTT-liposomes: inhibited
cells; short exposure time (15 min)
  Effect on uptake of CTT-liposomes: increased

## CLPGHWGFPSC (cysteine pairing not given here) [CTT homolog, part of EGF-7 domain in human laminin β-1 chain]
U937 cells [1]
  Increase in killing of cells vs Adriamycin liposomes without peptide: 1.3 fold
U937 cells [2]
  Enhancement of uptake of liposome-encapsulated rhodamine vs liposomes lacking peptide: Only minor effect
[3]
  Initial monolayer packing pressure above which membrane penetration was abolished: 33 mN/m
[4]
  Lipid mixing / vesicle fusion (NBD-PE emission): lack of lipid mixing

## Cys-Trp-Leu-Thr-Phe-Thr-His-Gly-Thr-Cys (CWLTFTHGTC; disulfide 1-10) [scrambled cyclic peptide, reference compound]
U937 cells [1]
  Increase in killing of cells vs Adriamycin liposomes without peptide: not
U937 cells [2]
  Enhancement of uptake of liposome-encapsulated rhodamine vs liposomes lacking peptide: inefficient

## STTHWGFTLS
U937 cells [1]
  Increase in killing of cells vs Adriamycin liposomes without peptide: 1.7 fold
MMP-2
  Inhibition of MMP-2 activity: approx. 30%
U937 cells [2]
  Enhancement of uptake of liposome-encapsulated rhodamine vs liposomes lacking peptide: Only minor effect
[3]
  Initial monolayer packing pressure above which membrane penetration was abolished: 31 mN/m
[4]
  Lipid mixing / vesicle fusion (NBD-PE emission): lack of lipid mixing

## aprotinin
HT1080 cells
  Inhibition of liposome transfer into cells: no significant inhibitory effect
